Laboratory results as given in patent US6180669A, “Method for treatment of dermatological disorders” (priority 1999, dated 2001).
“Also recorded” adds a separate entry of the source. Like-named read-outs stand apart in the source and are kept apart here.

Legend:
[1] = system: sebaceous glands; settings: topical, literature, cited from earlier work
[2] = system: keratinocytes; settings: Passi et al.; cited from earlier work
[3] = system: reduction of testosterone to dihydrotestosterone; settings: literature; cited from earlier work
[4] = system: acne; settings: 20% preparation, twice daily; Fitton and Goa; cited from earlier work
[5] = in vitro; settings: human, keratinocytes
Description: The direct effect of the compounds of the invention on the proliferation of human keratinocytes was assessed in vitro using a keratinocyte cell line.
Modulation of keratinocyte proliferation. The effect of di(ethyl salycilate)azelate and di-retinyl azelate on cell proliferation and cell viability was tested in vitro using human keratinocyte culture system.
Keratinocyte cells, as above, were allowed to proliferate in medium, without the test materials, up to 100% confluency, with one exchange of medium during growth. Confluent cultures were incubated with increasing concentrations of the test materials in ethanol for three days at 37° C. and 5% CO2. At the end of the incubation period the cultures were washed with PBS and measured for remaining attached cells using the above described methods.

[6] = system: human keratinocytes; test: Cell proliferation assay; type: cell-based; settings: for IC50: Homo sapiens; for potency in inhibiting cell proliferation (in words): in vitro, keratinocytes
Description: Modulation of keratinocyte proliferation.
Cell proliferation assay.
50,000 human keratinocytes from secondary culture were seeded into 24 well plates, in 1 ml DMEM-F12 medium (Green H. (1978) Cell 15:801-805) with growth factors and 10% Fetal Calf Serum. The cells were incubated at 37° C. in 5% CO2 until 30-40% confluency was reached and then the various test materials, dissolved in ethanol, were added in volumes of 0.1-20 μl, to final volume of 0.5 ml. The same volumes of ethanol were added to control cultures, for comparative values of ethanol cytotoxicity. No apparent cytotoxicity was found up to 40 μl ml ethanol. The medium was replaced with fresh medium prior to addition of the test materials. The cultures were further incubated for 3 days at 37° C. and 5% CO2 and then washed with phosphate buffered saline (PBS). Cell numbers were determined using two methods: 1) trypsinization, followed by cell counting; and 2) fixation of the culture with p-formaldehyde 2% in PBS and methylene blue staining, followed by extraction of color and optical density measurement at 650 nm. Both methods were found in good correlation, so that 1 OD unit corresponded to 1,000,000 cells. IC50, i.e., the concentration that caused 50% inhibition of cell proliferation for each of the test materials is presented in Table 1.

[7] = system: culicoides hypersensitivity; test: Effect on culicoides hypersensitivity in horses; type: in vivo, horse; settings: 5% alcoholic solution, topically twice daily for two weeks
Description: Prior to treatment, the horses had typical occurrence of the disease, including localized dermatitis affecting the mane and poll and the root of the tail. FIG. 1 is a photograph of the mane area of a horse afflicted by culicoides hypersensitivity. […] The skin at the affected areas looked hairless, ridged and scaly. The shoulder area and hind quarters were also affected. The horses were treated topically with a 5% alcoholic solution of di(ethyl salicylate) azelate, twice daily for two weeks.
The effect of di(ethyl salicylate) azelate on culicoides hypersensitivity was tested in two horses with colicoides hypersensitivity. Prior to treatment, both horses had typical occurrence of the disease, including localized dermatitis affecting the mane and poll and the root of the tail. The shoulder area and hind quarters were also affected. The skin at the affected areas looked hairless, ridged and scaly. The horses were treated topically with a 5% alcoholic solution of di(ethyl salicylate)azelate, twice daily for two weeks. […] As clearly seen in the pictures, hair seemed to regrow and the skin looked healthy. This improvement persisted throughout 14 days of treatment and observation.

[8] = system: skin of a human subject; test: Human skin irritation test; type: in vivo; settings: 48 h application, 0.1 ml; observed upon removal and 1, 24, 48 h later; ester 20%; mixture 7.5% azelaic acid + 11% salicylic acid
Description: Human skin irritation test. The following lotions (0.1 ml) were applied to the skin of a human subject for 48 hours, using standard skin irritation test chambers (0.64 sq. cm.):
(1) 20% di(ethyl salicylate)azelate (400 mmole/ml), dissolved in PEG-400/ethanol 1:1;
(2) mixture of 7.5% azelaic acid (400 mmole/ml) and 11% salicylic acid (800 mmole/ml), dissolved in PEG-400/ethanol 1:1; and
(3) PEG-400/ethanol 1:1 (placebo).

[9] = system: skin of rabbits; test: Acute dermal toxicity/irritation test (modified Draise); type: in vivo, rabbit; settings: 10% and 20%, 0.5 ml, 24 h application, observed 1, 24 and 72 h after removal
Description: These findings emphasize a distinct advantage of di(ethyl salicylate)azelate over its parent components.
Acute dermal toxicity/irritation test. The purpose of this study was to evaluate the acute potential dermal irritation effect on skin following the topical application of di(ethyl salicylate) azelate, in rabbits. This test is a modified version of the original Draise method, as described in OECD guidelines. 0.5 ml of either di(ethyl salicylate)azelate (10% or 20%, dissolved in PEG-400/ethanol 1:1) or the vehicle alone were applied to the skin of three rabbits for 24 hours. Rabbits were examined for signs of skin irritation 1, 24 and 72 hours after the removal of the test solutions. […] Based on the current protocol it was concluded that di(ethyl salicylate) azelate is a non-irritant agent.

[10] = system: chin acne; furunculosis (eczema); test: Anti-acne and anti-inflammatory effect in cats (chin acne, furunculosis); type: in vivo, cat; settings: 5% alcoholic solution, twice daily for 14 days
Description: The compounds of the present invention have been shown in animals to alleviate the symptoms of acne. Four cats with persistant chin acne were treated twice daily for 14 days with 5% alcoholic solution of di(ethyl salicylate) azelate. […] The skin lesions disappeared and the bald areas were covered with new hair.
Anti-acne and anti-inflammatory effect of di(ethyl salicylate) azelate. Four cats were admitted to the veterinary clinic with skin lesions identified as chin acne. One additional cat had localized furunculosis (eczema) on the chin. The area of the skin lesions was 1-4 cm^2 at baseline. All animals were previously treated with either benzoyl peroxide or topical steroids with no response. Cats were treated twice daily for 14 days with a 5% alcoholic solution of di(ethyl salicylate) azelate.

[11] = system: comedones, rabbit ear acne model; test: Efficacy in the rabbit ear acne model (comedolytic effect); type: in vivo
Description: See, Lee, et al. Kor. J. Dermatol. 28(5):543-549 (1990).
Efficacy of di(ethyl salicylate)azelate (10%) in the rabbit ear acne model. Three mature male albino rabbits were treated as follows. The external ear canals on both ears were treated once daily for five weekdays for three weeks with 1% crude coal tar in Hydrophilic Ointment USP. Then one ear was treated with antiacne lotion of Example 4 once daily for five weekdays for three weeks while the opposite ear served as an untreated control. Excision biopsies were taken from both sides at the end of three weeks of treatment. […] These were judged to be moderate examples of comedones with distortion of the follicular infundibulum by dense horn.

[12] = system: skin oiliness of forehead; test: Sebolytic effect (skin oiliness of forehead, Skin Tester); type: in vivo, human; settings: lotion of Example 5, twice daily, 14 days; prior to treatment 223 units
Description: Following fourteen days of topical treatment, the skin oiliness of the forehead of a human volunteer, tested using a photometric instrument was reduced from 223 units (resembling "oily skin") to 205 units (normal skin value).
Sebolytic effect of di(ethyl salicylate)azelate. […] Skin oiliness was tested using "Skin Tester, Model STC20" (IMS Ltd., Haifa, Israel) prior to treatment and 14 days thereafter. Prior to treatment, the sebum value was 223 units, typical of oily skin. The sebum value after two weeks of treatment was 205 units, corresponding to normal skin.

[13] = Keratinocyte, 72 h, 3 days incubation, 50% inhibition of cell proliferation, Table 1, read-out: IC50 (inhibitory concentration)
[14] = keratinocyte cell line, read-out: inhibitory concentration, cell proliferation
[15] = cytotoxic concentrations higher than inhibitory concentrations
[16] = listed as di(ethyl salicylate) azelate

| Structure (SMILES) | CC50 at 72 h [5] [µM] | selectivity ratio ([5]; Safety factor (CD50/ID50)) | IC50 [6, 13] [µM] | IC50 [6, 14] [µM] | CC50 [5] [µM] | selectivity ratio [5, 15] | selectivity ratio ([5]; therapeutic safety margin) | potency in inhibiting cell proliferation (in words) [6] | further results |
| --- | --- | --- | --- | --- | --- | --- | --- | --- | --- |
| O=C(O)CCCCCCCC(=O)O [Azelaic acid, reference compound] | 4000 | 2.6 | 1500 | 1000 |  |  |  |  | skin oiliness / sebum composition, sebum excretion rate, size of sebaceous glands [1]: can not alter skin oiliness; skin oiliness / sebum composition, sebum excretion rate, size of sebaceous glands ([1]; listed as AZA): failed to induce specific changes in sebum composition, sebum excretion rate and the size of sebaceous glands; effect on keratinocytes [2]: antiproliferative effects on keratinocytes; inhibition of testosterone reduction to dihydrotestosterone [3]: competitive inhibitor of the reduction of testosterone to dihydrotestosterone; time of topical application until effective in acne [4]: 3-6 months; selectivity ratio ([5]; cytotoxic concentration, times higher than inhibitory concentration): 2.6 |
| CC1=C(/C=C/C(C)=C/C=C/C(C)=C/COC(=O)CCCCCCCC(=O)OC/C=C(C)/C=C/C=C(C)/C=C/C2=C(C)CCCC2(C)C)C(C)(C)CCC1 [Di-retinyl azelate, di-retinyl azelate] | 100 | 6.6 | 15 | 15 | 100 | 6.6 to 10 | 6.6 to 10 | significantly more potent than azelaic acid and salicylic acid |  |
| O=C(O)c1ccccc1O [Salicylic acid, o-hydroxybenzoic acid, reference compound] | 6000 |  |  |  |  |  |  |  | selectivity ratio [5]: 3.8; IC50 ([6]; Keratinocyte, 72 h, read-out: IC50 (inhibitory concentration)): 1600 µM |
| CCOC(=O)c1ccccc1OC(=O)CCCCCCCC(=O)Oc1ccccc1C(=O)OCC [di(ethyl salicylate)azelate, Nonanedioic acid, di-[(2'-ethoxycarbonyl)phenyl]ester] | 3000 | 10 | 300 | 300 | 3 | 6.6 to 10 | 6.6 to 10 | significantly more potent than azelaic acid and salicylic acid | improvement of lesions and hair growth [7]: After one week of treatment, there was a marked improvement in the appearance of all treated lesions; also recorded: hair seemed to regrow and the skin looked healthy. This improvement persisted throughout 14 days of treatment and observation; improvement of lesions and hair growth [7, 16]: After one week of treatment, there was a marked improvement in the appearance of all treated lesions. Hair regrew and the skin looked healthy; skin reaction / irritation [8]: did not irritate the skin; also recorded: no sign of any skin reaction; signs of skin irritation [9]: no signs of irritation; signs of skin irritation [9, 16]: no signs of skin irritation were observed; skin irritation in treated cats [10]: No skin irritation was noticed in any of the treated cats; response of chin acne ([10]; four cats): Three of the four cats responded to treatment within 10 days; also recorded: Three of the four cats responded to treatment within ten days; response of furunculosis (eczema) ([10]; one cat): responded positively; also recorded: successfully treated; reduction of comedones ([11]; 10% topical, once daily five weekdays for three weeks): effective in the reduction of comedones; also recorded: All three treated ears showed a marked reduction of the comedones; comedolytic effect compared with 0.025% Retin A Cream ([11]; 10% topical, rabbit ear): comparable to the effect of 0.025% Retin A Cream; comedolytic effect compared with 20% azelaic acid preparation of the prior art ([11]; 10% topical, rabbit ear, comparison with Lee et al.): superior to a 20% (1,060 mmole/ml) azelaic acid preparation; inflammatory response in treated area ([11]; topical, rabbit ear, Retin A at 0.025%): did not induce any inflammatory response in the treated area; also recorded: no inflammatory reaction; sebum value (skin oiliness) after treatment [12]: 205 units |
